Data set [1] can be described thus: Cytotoxic activity, standard tetrazolium (MTT) assay on HaCaT cells. In kind it is cell-based. As to conditions: human, HaCaT keratinocyte cells, 24 h incubation with compound, 1-200 µg/mL. The procedure:
(§1) Cytotoxic properties of pure compounds were determined with a standard tetrazolium assay. B16 (6000 cells/well) and HaCaT (10,000 cells/well) cells were seeded in RPMI 1640 medium with 5% fetal calf serum (FCS) and antibiotic at day 0 in well-plate. Incubation was performed at 37 °C in an atmosphere of 5% CO2. After 24 h of incubation, compounds were added at different concentrations (1, 10, 50, 100, and 200 µg/mL), and the plate was incubated 24 h more (37 °C, 5% CO2). Cell growth and viability were then measured at 540 nm, using a MTT (3-[4,5-dimethylthiazol-2-yl]-2,5-diphenyltetrazolium bromide) assay. Each experiment was repeated at least three times.

The nature of data set [2]: Cytotoxic activity, standard tetrazolium (MTT) assay on B16 cells. The format is cell-based, murine. As to conditions: mouse, B16 melanoma cells, 24 h incubation with compound, 1-200 µg/mL. The procedure: as §1

We go through ten compounds from PMC6155340, “Isolation and Structure Identification of Novel Brominated Diketopiperazines from Nocardia ignorata—A Lichen-Associated Actinobacterium” (Molecules : A Journal of Synthetic Chemistry and Natural …, 2017).

The structures appear in SMILES notation. Values after ≈ are worked out from the molar mass of the structure shown. Non-standard residues stand in square brackets, D forms with d. Residues, ends and D or L forms follow the SMILES beside them. *: point of attachment. Tyr(3-Br) = N[C@@H](Cc1ccc(O)c(Br)c1)C(=O)O; Boc = CC(C)(C)OC(=O)*

In the case of `COC(=O)[C@H]1CCCN1C(=O)[C@H](Cc1ccc(O)c(Br)c1)NC(=O)OC(C)(C)C` [Compound 13a, Methyl ((S)-3-(3-bromo-4-hydroxyphenyl)-2-((tert-butoxycarbonyl)amino)propanoyl)-D-prolinate] (Boc-[Tyr(3-Br)]-[dP]-OMe), the IC50 at 24 h in data set [1] and in data set [2] was above 200 µg/mL in each case.
In the case of `O=C1N[C@@H](Cc2ccc(O)cc2)C(=O)N2CCC[C@H]12` [Compound 3, cyclo (D-Pro-L-Tyr)], the IC50 at 24 h in data set [1] and in data set [2] was above 200 µg/mL throughout.
In the case of `COC(=O)[C@@H]1CCCN1C(=O)[C@H](Cc1ccc(O)c(Br)c1)NC(=O)OC(C)(C)C` [Compound 13b, Methyl ((S)-3-(3-bromo-4-hydroxyphenyl)-2-((tert-butoxycarbonyl)amino)propanoyl)-L-prolinate] (Boc-[Tyr(3-Br)]-Pro-OMe), the IC50 at 24 h in data set [1] was found to be 7 ± 2.5 µg/mL (≈ 14.9 µM); in data set [2], 18 ± 5 µg/mL (≈ 38.2 µM).
The like results for `C[S+]([O-])CC[C@@H]1NC(=O)[C@@H]2CCCN2C1=O` (stereo partly drawn) [Compound 1, cyclo (L-Pro-L-OMet)] were, in that order, above 200 µg/mL and above 200 µg/mL.
With `O=C1N[C@@H](Cc2ccc(O)c(Br)c2)C(=O)N2CCC[C@@H]12` [Compound 7, cyclo (L-Pro-L-Br-Tyr)], the IC50 at 24 h in data set [1] and in data set [2] was above 200 µg/mL each time.
Regarding `O=C1N[C@@H](Cc2ccc(O)cc2)C(=O)N2CCC[C@@H]12` [Compound 2, cyclo (L-Pro-L-Tyr)], the IC50 at 24 h in data set [1] and in data set [2] was above 200 µg/mL in each case.
In the case of `CC(C)[C@@H]1NC(=O)[C@@H]2CCCN2C1=O` [Compound 4, cyclo (L-Pro-L-Val)], the IC50 at 24 h in data set [1] and in data set [2] was above 200 µg/mL in each case.
On to `O=Cc1c[nH]c2ccccc12` [Compound 8, indole-carboxaldehyde], for which the IC50 at 24 h stood at 79 ± 6 µg/mL (≈ 544 µM) in data set [1] and 72 ± 6 µg/mL (≈ 496 µM) in data set [2].
The like results for `CC(C)C[C@@H]1NC(=O)[C@@H]2CCCN2C1=O` [Compound 5, cyclo (L-Pro-L-Leu)] were, in that order, above 200 µg/mL and above 200 µg/mL.
The like results for `O=C1N[C@@H](Cc2ccc(O)c(Br)c2)C(=O)N2CCC[C@H]12` [Compound 6, cyclo (D-Pro-L-Br-Tyr)] were, in that order, above 200 µg/mL and above 200 µg/mL.

The term IC50 denotes the concentration that gives 50% inhibition.
